Reference: ChEMBL document CHEMBL5705903, “A DNA Hypomethylation Signature Predicts Antitumor Activity of LSD1 Inhibitors in SCLC” (Cancer Cell, 2015)

How the values were obtained:
[1] = biological target: T1, Beta-2 adrenergic receptor (Homo sapiens, UniProt P07550); test: Agonist activity at Adrenergic b2 receptor (unknown origin); format: functional
[2] = biological target: Sodium-dependent serotonin transporter (Homo sapiens, UniProt P31645); test: Inhibition of SERT (unknown origin)
[3] = biological target: T2, 5-hydroxytryptamine receptor 2A (Homo sapiens, UniProt P28223); test: Antagonist activity at 5-HT2A receptor (unknown origin); format: functional
[4] = biological target: Voltage-gated potassium channel, IKs; KCNQ1(Kv7.1)/KCNE1(MinK) (Homo sapiens, UniProt P15382+P51787); test: Inhibition of KCNQ1/minK (unknown origin); format: protein-complex assay
[5] = biological target: Mu-type opioid receptor (Homo sapiens, UniProt P35372); test: Agonist activity at MOR (unknown origin); format: functional
[6] = biological target: T3, Muscarinic acetylcholine receptor M2 (Homo sapiens, UniProt P08172); test: Antagonist activity at Muscarinic M2 receptor (unknown origin); format: functional
T3 sequence (P08172 whole entry): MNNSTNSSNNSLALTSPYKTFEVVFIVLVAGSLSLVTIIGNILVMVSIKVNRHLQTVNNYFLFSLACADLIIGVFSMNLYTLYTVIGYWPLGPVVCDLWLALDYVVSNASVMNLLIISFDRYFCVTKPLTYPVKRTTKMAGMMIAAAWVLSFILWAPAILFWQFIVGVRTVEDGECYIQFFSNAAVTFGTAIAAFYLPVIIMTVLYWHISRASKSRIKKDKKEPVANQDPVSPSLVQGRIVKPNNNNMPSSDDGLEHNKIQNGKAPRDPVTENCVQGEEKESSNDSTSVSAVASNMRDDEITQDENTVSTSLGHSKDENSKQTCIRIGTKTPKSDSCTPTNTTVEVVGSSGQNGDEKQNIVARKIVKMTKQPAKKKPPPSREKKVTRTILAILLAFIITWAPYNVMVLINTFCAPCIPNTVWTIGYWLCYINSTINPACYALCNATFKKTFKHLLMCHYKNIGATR

[7] = biological target: Aryl hydrocarbon receptor (Homo sapiens, UniProt P35869); test: Activation of AhR (unknown origin)
[8] = biological target: Cannabinoid receptor 2 (Homo sapiens, UniProt P34972); test: Agonist activity at Cannabinoid CB2 receptor (unknown origin); format: functional
[9] = biological target: Serotonin 3 (5-HT3) receptor; test: Inhibition of 5-HT3 receptor (unknown origin); format: protein-complex assay, Homo sapiens
[10] = biological target: T4, Muscarinic acetylcholine receptor M1 (Homo sapiens, UniProt P11229); test: Antagonist activity at Muscarinic M1 receptor (unknown origin); format: functional
T4 sequence (P11229 whole entry): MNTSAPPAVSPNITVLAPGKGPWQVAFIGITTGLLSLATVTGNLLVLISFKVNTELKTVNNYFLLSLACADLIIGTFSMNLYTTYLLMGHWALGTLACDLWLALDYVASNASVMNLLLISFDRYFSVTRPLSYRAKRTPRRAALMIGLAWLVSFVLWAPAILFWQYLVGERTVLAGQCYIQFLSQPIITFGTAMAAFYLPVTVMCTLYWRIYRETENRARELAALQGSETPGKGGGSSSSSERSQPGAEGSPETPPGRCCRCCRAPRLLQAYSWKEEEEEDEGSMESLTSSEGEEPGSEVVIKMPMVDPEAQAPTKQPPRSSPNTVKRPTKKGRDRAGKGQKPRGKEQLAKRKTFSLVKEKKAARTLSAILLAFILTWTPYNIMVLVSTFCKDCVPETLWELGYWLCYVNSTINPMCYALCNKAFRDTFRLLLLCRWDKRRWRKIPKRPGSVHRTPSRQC

[11] = biological target: Phosphatidylinositol 4,5-bisphosphate 3-kinase catalytic subunit gamma isoform (Homo sapiens, UniProt P48736); test: Inhibition of PI3Kgamma (unknown origin)
[12] = biological target: Vasopressin V1a receptor (Homo sapiens, UniProt P37288); test: Antagonist activity at V1a receptor (unknown origin); format: functional
[13] = biological target: Sodium channel protein type 5 subunit alpha (Homo sapiens, UniProt Q14524); test: Inhibition of Nav1.5 (unknown origin)
[14] = biological target: Nuclear receptor subfamily 1 group I member 2 (Homo sapiens, UniProt O75469); test: Activation of PXR (unknown origin)
[15] = biological target: T5, 5-hydroxytryptamine receptor 2C (Homo sapiens, UniProt P28335); test: Agonist activity at 5-HT2C receptor (unknown origin); format: functional
T5 sequence (P28335 whole entry): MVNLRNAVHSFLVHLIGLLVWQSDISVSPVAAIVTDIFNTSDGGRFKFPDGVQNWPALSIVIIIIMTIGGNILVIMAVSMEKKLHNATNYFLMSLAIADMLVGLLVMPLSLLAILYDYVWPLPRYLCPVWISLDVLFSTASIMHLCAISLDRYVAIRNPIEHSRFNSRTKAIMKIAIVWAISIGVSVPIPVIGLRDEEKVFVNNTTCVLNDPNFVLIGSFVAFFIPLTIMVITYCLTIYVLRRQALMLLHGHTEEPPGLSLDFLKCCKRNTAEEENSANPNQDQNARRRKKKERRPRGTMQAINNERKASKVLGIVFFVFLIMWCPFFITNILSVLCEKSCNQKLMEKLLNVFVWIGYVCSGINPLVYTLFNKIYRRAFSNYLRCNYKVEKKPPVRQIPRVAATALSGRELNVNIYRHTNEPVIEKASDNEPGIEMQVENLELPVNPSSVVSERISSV

[16] = biological target: Adenosine receptor A2a (Homo sapiens, UniProt P29274); test: Agonist activity at Adenosine A2a receptor (unknown origin); format: functional
[17] = biological target: Kappa-type opioid receptor (Homo sapiens, UniProt P41145); test: Agonist activity at KOR (unknown origin); format: functional
[18] = biological target: T3, Muscarinic acetylcholine receptor M2; test: Agonist activity at Muscarinic M2 receptor (unknown origin); format: functional
[19] = biological target: T1, Beta-2 adrenergic receptor; test: Antagonist activity at Adrenergic b2 receptor (unknown origin); format: functional
[20] = biological target: Substance-P receptor (Homo sapiens, UniProt P25103); test: Antagonist activity at NK1 receptor (unknown origin); format: functional
[21] = biological target: D(2) dopamine receptor (Homo sapiens, UniProt P14416); test: Agonist activity at Dopamine D2 receptor (unknown origin); format: functional
[22] = Inhibition of COX (unknown origin); set-up: species or system Homo sapiens
[23] = biological target: Tyrosine-protein kinase Lck (Homo sapiens, UniProt P06239); test: Inhibition of LCK (unknown origin)
[24] = biological target: T6, 5-hydroxytryptamine receptor 1B (Homo sapiens, UniProt P28222); test: Antagonist activity at 5-HT1B (unknown origin); format: functional
[25] = biological target: T6, 5-hydroxytryptamine receptor 1B; test: Agonist activity at 5-HT1B receptor (unknown origin); format: functional
[26] = biological target: Alpha-1B adrenergic receptor (Homo sapiens, UniProt P35368); test: Agonist activity at Adrenergic a1B receptor (unknown origin); format: functional
[27] = biological target: Potassium voltage-gated channel subfamily A member 5 (Homo sapiens, UniProt P22460); test: Inhibition of Kv1.5 (unknown origin)
[28] = biological target: D(1A) dopamine receptor (Homo sapiens, UniProt P21728); test: Antagonist activity at Dopamine D1 receptor (unknown origin); format: functional
[29] = biological target: Solute carrier organic anion transporter family member 1B1 (Homo sapiens, UniProt Q9Y6L6); test: Inhibition of OATP1B1 (unknown origin)
[30] = biological target: Histamine H1 receptor (Homo sapiens, UniProt P35367); test: Antagonist activity at Histamine H1 receptor (unknown origin); format: functional
[31] = biological target: T2, 5-hydroxytryptamine receptor 2A; test: Agonist activity at 5-HT2A receptor (unknown origin); format: functional

T6 sequence (P28222 whole entry): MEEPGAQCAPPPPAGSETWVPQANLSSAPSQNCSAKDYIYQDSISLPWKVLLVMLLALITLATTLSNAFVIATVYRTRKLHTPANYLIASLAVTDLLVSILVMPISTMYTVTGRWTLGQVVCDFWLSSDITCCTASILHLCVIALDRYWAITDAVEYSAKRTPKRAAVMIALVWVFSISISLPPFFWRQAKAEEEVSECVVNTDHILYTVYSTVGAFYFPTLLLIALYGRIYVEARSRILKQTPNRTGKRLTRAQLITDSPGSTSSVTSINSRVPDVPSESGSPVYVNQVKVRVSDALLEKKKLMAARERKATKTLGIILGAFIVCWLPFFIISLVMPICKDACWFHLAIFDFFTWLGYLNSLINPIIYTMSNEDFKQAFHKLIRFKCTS
T2 sequence (P28223 whole entry): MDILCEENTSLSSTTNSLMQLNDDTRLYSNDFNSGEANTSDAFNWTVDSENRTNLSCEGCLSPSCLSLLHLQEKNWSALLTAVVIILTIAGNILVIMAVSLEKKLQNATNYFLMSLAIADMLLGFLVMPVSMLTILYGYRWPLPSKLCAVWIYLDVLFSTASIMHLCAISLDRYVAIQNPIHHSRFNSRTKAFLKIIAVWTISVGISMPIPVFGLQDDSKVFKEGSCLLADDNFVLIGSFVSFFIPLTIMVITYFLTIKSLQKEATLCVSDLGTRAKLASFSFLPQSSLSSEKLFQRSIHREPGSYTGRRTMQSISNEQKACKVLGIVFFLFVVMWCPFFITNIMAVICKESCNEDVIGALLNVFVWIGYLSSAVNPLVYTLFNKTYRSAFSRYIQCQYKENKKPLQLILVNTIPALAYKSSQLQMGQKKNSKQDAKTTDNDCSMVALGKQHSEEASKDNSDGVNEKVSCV
T1 sequence (P07550 whole entry): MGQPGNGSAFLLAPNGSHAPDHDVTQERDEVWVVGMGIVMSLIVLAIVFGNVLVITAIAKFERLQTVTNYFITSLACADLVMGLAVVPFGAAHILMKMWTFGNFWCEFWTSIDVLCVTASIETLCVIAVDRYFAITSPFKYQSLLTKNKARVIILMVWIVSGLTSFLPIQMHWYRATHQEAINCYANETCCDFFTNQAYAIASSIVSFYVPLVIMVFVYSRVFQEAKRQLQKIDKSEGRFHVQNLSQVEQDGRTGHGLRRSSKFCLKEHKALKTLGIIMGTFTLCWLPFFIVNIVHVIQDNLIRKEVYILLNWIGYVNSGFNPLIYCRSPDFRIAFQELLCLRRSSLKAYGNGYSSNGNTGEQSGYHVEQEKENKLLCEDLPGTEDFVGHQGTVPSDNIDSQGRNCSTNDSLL
Chain of Aryl hydrocarbon receptor (P35869 whole entry): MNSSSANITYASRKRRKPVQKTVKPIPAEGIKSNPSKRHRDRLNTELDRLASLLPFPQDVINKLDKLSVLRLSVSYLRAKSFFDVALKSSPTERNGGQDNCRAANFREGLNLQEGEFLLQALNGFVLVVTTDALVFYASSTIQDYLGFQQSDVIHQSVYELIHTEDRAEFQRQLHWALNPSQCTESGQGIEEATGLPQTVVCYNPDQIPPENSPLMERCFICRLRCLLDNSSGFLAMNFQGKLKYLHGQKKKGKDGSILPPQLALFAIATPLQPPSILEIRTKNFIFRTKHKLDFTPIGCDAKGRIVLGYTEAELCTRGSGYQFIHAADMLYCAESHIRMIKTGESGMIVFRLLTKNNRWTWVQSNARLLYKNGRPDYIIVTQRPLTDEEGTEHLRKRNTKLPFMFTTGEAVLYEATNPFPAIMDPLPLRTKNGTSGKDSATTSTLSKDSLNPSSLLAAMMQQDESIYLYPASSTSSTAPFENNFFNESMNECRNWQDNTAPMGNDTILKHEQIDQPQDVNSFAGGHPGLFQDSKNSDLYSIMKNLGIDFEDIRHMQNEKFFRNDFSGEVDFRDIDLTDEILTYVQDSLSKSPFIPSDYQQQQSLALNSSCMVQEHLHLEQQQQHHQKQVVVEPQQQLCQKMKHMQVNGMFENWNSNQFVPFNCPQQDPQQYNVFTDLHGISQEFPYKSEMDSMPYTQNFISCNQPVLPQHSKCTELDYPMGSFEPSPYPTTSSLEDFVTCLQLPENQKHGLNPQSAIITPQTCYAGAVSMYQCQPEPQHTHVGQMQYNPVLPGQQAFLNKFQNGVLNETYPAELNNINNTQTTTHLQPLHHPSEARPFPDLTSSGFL
Chain of Phosphatidylinositol 4,5-bisphosphate 3-kinase catalytic subunit gamma isoform (P48736 whole entry, canonical isoform): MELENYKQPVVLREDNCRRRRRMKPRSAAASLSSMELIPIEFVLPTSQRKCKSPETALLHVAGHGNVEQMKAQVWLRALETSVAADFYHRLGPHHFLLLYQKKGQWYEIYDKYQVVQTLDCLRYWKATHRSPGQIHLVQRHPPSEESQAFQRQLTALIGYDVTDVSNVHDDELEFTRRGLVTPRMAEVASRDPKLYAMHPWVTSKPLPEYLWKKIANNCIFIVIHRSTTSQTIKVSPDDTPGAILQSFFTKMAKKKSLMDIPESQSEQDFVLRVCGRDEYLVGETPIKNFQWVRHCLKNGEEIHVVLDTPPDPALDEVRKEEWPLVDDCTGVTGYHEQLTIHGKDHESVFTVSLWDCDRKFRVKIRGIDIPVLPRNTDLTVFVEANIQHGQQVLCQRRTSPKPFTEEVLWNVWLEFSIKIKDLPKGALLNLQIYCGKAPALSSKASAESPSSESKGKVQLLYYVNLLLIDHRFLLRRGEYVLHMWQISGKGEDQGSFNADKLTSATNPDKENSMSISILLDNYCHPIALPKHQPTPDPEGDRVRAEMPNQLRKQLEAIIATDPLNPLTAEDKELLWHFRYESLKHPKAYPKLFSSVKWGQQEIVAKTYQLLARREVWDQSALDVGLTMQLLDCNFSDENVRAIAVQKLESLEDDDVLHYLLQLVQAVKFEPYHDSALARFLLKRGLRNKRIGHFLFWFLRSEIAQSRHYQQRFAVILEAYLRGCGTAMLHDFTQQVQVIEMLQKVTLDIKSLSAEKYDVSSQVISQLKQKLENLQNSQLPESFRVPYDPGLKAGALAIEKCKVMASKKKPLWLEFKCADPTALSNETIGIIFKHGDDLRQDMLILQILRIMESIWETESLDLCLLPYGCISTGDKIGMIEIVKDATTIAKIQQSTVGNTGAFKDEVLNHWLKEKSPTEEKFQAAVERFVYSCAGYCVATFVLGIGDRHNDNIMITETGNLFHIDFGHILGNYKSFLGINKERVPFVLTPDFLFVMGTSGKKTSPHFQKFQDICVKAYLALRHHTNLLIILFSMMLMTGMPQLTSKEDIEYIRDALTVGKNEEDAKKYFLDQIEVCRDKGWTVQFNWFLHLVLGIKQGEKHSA
Chain of Sodium-dependent serotonin transporter (P31645 whole entry): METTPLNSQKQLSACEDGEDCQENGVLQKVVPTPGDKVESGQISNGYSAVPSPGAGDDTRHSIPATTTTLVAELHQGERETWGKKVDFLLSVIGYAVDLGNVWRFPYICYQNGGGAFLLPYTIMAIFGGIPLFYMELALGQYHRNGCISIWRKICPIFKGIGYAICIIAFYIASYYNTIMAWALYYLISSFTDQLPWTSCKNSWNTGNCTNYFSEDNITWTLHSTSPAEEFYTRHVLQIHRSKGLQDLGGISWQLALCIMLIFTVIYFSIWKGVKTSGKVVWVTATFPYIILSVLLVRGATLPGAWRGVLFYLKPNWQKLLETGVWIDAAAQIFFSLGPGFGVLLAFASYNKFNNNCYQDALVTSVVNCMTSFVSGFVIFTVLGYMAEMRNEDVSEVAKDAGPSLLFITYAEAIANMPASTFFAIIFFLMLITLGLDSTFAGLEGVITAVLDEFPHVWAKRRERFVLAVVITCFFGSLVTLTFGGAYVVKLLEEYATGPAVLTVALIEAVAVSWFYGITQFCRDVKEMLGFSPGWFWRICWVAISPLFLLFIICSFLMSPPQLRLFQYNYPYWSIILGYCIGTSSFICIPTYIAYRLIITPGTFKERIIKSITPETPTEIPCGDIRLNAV
Chain of Alpha-1B adrenergic receptor (P35368 whole entry): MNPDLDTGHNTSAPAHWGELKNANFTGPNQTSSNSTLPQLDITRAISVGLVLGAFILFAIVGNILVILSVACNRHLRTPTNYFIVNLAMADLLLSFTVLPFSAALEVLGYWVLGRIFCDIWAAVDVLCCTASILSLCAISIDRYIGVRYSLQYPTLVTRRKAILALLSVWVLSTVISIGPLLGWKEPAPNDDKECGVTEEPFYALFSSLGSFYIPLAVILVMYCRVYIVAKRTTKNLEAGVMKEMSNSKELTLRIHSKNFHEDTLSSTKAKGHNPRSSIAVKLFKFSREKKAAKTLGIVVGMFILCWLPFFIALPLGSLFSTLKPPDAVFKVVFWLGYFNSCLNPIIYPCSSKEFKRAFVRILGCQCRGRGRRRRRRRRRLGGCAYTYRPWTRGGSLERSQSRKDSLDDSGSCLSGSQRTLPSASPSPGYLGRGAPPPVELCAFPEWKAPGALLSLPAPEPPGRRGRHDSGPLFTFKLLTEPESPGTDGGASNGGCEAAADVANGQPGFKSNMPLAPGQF
Chain of Cannabinoid receptor 2 (P34972 whole entry): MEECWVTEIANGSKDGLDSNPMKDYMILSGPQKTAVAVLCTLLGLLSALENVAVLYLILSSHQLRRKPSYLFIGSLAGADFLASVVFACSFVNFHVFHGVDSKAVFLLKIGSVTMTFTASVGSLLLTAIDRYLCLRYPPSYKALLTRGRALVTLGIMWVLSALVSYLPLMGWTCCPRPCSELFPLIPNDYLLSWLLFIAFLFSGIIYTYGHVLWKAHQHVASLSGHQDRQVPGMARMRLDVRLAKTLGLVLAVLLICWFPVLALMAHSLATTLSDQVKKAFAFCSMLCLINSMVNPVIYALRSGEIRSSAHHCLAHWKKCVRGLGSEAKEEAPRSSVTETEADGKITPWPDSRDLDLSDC

c1ccc([C@@H]2C[C@H]2NC2CCNCC2)cc1
EC50 [1]: > 100 µM
IC50 [2]: 2 µM
EC50 [3]: 16 µM
IC50 [4]: > 25 µM
EC50 [5]: > 100 µM
EC50 [6]: > 30 µM
EC50 [7]: > 100 µM
EC50 [8]: > 100 µM
IC50 [9]: > 30 µM
EC50 [10]: > 30 µM
IC50 [11]: > 32 µM
EC50 [12]: > 30 µM
IC50 [13]: > 100 µM
EC50 [14]: > 30 µM
EC50 [15]: > 25 µM
EC50 [16]: > 100 µM
EC50 [17]: > 100 µM
EC50 [18]: > 30 µM
EC50 [19]: > 100 µM
EC50 [20]: > 25 µM
EC50 [21]: > 100 µM
IC50 [22]: > 100 µM
IC50 [23]: > 32 µM
EC50 [24]: > 100 µM
EC50 [25]: 5 µM
EC50 [26]: > 25 µM
IC50 [27]: > 30 µM
EC50 [28]: > 100 µM
IC50 [29]: > 30 µM
EC50 [30]: > 25 µM
EC50 [31]: > 25 µM

O=C(O)c1ccc(CN2CCC(CN[C@@H]3C[C@H]3c3ccccc3)CC2)cc1 [GSK2879552]
EC50 [1]: > 32 µM
IC50 [2]: 80 µM
EC50 [3]: 20 µM
IC50 [4]: > 25 µM
EC50 [5]: > 100 µM
EC50 [6]: > 16 µM
EC50 [7]: > 100 µM
EC50 [8]: > 100 µM
IC50 [9]: > 30 µM
EC50 [10]: > 16 µM
IC50 [11]: > 32 µM
EC50 [12]: > 30 µM
IC50 [13]: 80 µM
EC50 [14]: > 30 µM
EC50 [15]: > 40 µM
EC50 [16]: > 32 µM
EC50 [17]: > 100 µM
EC50 [18]: > 16 µM
EC50 [19]: > 32 µM
EC50 [20]: > 40 µM
EC50 [21]: 20 µM
IC50 [22]: 25 µM
IC50 [23]: > 32 µM
EC50 [24]: > 30 µM
EC50 [25]: > 32 µM
EC50 [26]: > 40 µM
IC50 [27]: > 30 µM
EC50 [28]: > 32 µM
IC50 [29]: > 30 µM
EC50 [30]: > 40 µM
EC50 [31]: > 40 µM
